Reference: publication PMC5753767 (Bioorganic & medicinal chemistry letters, 2017)
“Also recorded” adds a separate entry of the source.

Legend:
[1] = tested on: A2780 ovarian cells; assay: Antiproliferative activity against A2780 ovarian cells; format: cell-based
[2] = tested on: P. falciparum Dd2; format: cell-based, Plasmodium falciparum; settings: chloroquine-resistant Dd2 strain of P. falciparum
[3] = tested on: HT-29 cancer cell line; settings: cited from earlier work
[4] = tested on: Caco-2 cancer cell line; settings: cited from earlier work

SMILES	Activity against human A2780 cells (in words) [1]	Antiplasmodial activity (in words) [2]	IC50 ([3]; read-out: Cytotoxicity IC50 HT-29, HT-29 cancer cell line) [µM]	IC50 ([4]; read-out: Cytotoxicity IC50 Caco-2, Caco-2 cancer cell line) [µM]	Cytotoxicity IC50 HT-29 [3]	Cytotoxicity IC50 Caco-2 [4]
COc1c2c(cc3c1OCO3)[C@]13C=C[C@H](OC)C[C@H]1[N@](C2)C[C@H]3O [Compound 4, ambelline]	lack of activity	moderate to good antiplasmodial activity	–	–	–	–
CC(=O)O[C@@H]1CC=C2CCN3Cc4cc5c(cc4[C@H]1[C@@H]23)OCO5 [Compound 5, acetylcaranine]	lack of activity	strong antiplasmodial activity; also recorded: moderate to good antiplasmodial activity	19.2	29.5	–	–
COC1=CC(=O)[C@@]23CCN(Cc4c2cc2c(c4OC)OCO2)[C@@H]3C1 [Compound 2, distichamine]	–	little inhibitory activity	–	–	–	–
COc1c2c(cc3c1OCO3)[C@]13C=C[C@H](OC)C[C@H]1[N@](C2)C[C@H]3OC(C)=O [Compound 3, 11-O-acetylambelline]	–	–	–	–	inactive	inactive
